Source: PubChem BioAssay AID330 (DTP/NCI, 2004)
“And” between values parts separate entries of the source, which are not always exact repeats. Equal values may be shown once. Inconclusive results and toxic doses are left out. How the source made its calls: active means survival T/C of 150% or more; inactive means T/C below 125% in these data.

Test system: P388 leukemia ip, CD2F1 mice, survival T/C
Test: NCI In Vivo Anticancer Drug Screen. Data for tumor model P388 Leukemia (intraperitoneal) in CD2F1 (CDF1) mice
Conditions: endpoint: median survival time, higher = longer survival
Method in brief: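 Mice carrying the transplanted tumor received test compound or vehicle. Survival was recorded in each group, and the value is the treated-group measurement divided by that of the vehicle-treated control group.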

[1] = dose: 50.0 mg/kg/injection, schedule: Q01DX005 (ip), vehicle: Klucel (hydroxypropylcellulose) (HPC)
[2] = dose: 100.0 mg/kg/injection, schedule: Q01DX005 (ip), vehicle: Klucel (hydroxypropylcellulose) (HPC)
[3] = dose: 200.0 mg/kg/injection, schedule: Q01DX005 (ip), vehicle: Klucel (hydroxypropylcellulose) (HPC)
[4] = dose: 60.0 mg/kg/injection, schedule: Q01DX005 (ip), vehicle: saline with Tween-80
[5] = dose: 120.0 mg/kg/injection, schedule: Q01DX005 (ip), vehicle: saline with Tween-80
[6] = dose: 240.0 mg/kg/injection, schedule: Q01DX005 (ip), vehicle: saline with Tween-80
[7] = dose: 100.0 mg/kg/injection, schedule: Q04DX002 (ip), vehicle: Klucel (hydroxypropylcellulose) (HPC)
[8] = dose: 200.0 mg/kg/injection, schedule: Q04DX002 (ip), vehicle: Klucel (hydroxypropylcellulose) (HPC)
[9] = dose: 400.0 mg/kg/injection, schedule: Q04DX002 (ip), vehicle: Klucel (hydroxypropylcellulose) (HPC)
[10] = dose: 100.0 mg/kg/injection, schedule: Q01DX009 (ip), vehicle: saline with Tween-80
[11] = dose: 200.0 mg/kg/injection, schedule: Q01DX009 (ip), vehicle: saline with Tween-80
[12] = dose: 50.0 mg/kg/injection, schedule: Q01DX009 (ip), vehicle: saline with Tween-80
[13] = dose: 50.0 mg/kg/injection, schedule: Q01DX005 (ip), vehicle: saline with Tween-80
[14] = dose: 50.0 mg/kg/injection, schedule: Q01DX009 (ip), vehicle: Klucel (hydroxypropylcellulose) (HPC)
[15] = dose: 100.0 mg/kg/injection, schedule: Q01DX005 (ip), vehicle: saline with Tween-80
[16] = dose: 100.0 mg/kg/injection, schedule: Q01DX009 (ip), vehicle: Klucel (hydroxypropylcellulose) (HPC)
[17] = dose: 200.0 mg/kg/injection, schedule: Q01DX005 (ip), vehicle: saline with Tween-80

Measured: T/C

Cc1nc2ccc(NC(=O)NC(=O)c3c(F)cccc3F)cc2s1
inactive: dose: 50.0 mg/kg/injection, schedule: Q04DX002 (ip), vehicle: saline with Tween-80 92 % of control | dose: 100.0 mg/kg/injection, schedule: Q04DX002 (ip), vehicle: saline with Tween-80 92 % of control | dose: 200.0 mg/kg/injection, schedule: Q04DX002 (ip), vehicle: saline with Tween-80 89 % of control

CN(C)C1C(O)C2Oc3c(cc(O)c4c3C(=O)c3cc5c(c(O)c3C4=O)C(N3CCCC3)CC(C)(O)C5)C(C)(O2)C1O (stereo not drawn)
inactive: dose: 3.12 mg/kg/injection, schedule: Q01DX009 (ip), vehicle: other 113 % of control | dose: 6.25 mg/kg/injection, schedule: Q01DX009 (ip), vehicle: other 116 % of control | dose: 12.5 mg/kg/injection, schedule: Q01DX009 (ip), vehicle: other 122 % of control

COC(=O)C1=CSCCC1=O
inactive: [1] 105 % of control | [2] 106 % of control | [3] 117 % of control

COc1cc(C2C3=C(CCCC3=O)Oc3cc4c(cc32)OCO4)cc(OC)c1OC (stereo not drawn)
inactive: [4] 91 % of control | [5] 90 % of control | [6] 98 % of control

CC(=O)NC(=O)Cc1ccccc1
inactive: [7] 94 % of control | [8] 95 % of control | [9] 97 % of control

S=C(NC1CCCCC1)NC1CCCCC1
inactive: [10] 90 % of control | dose: 100.0 mg/kg/injection, schedule: Q04DX003 (ip), vehicle: saline with Tween-80 95 % of control | [11] 90 % of control | dose: 200.0 mg/kg/injection, schedule: Q04DX003 (ip), vehicle: saline with Tween-80 90 % of control | dose: 400.0 mg/kg/injection, schedule: Q01DX009 (ip), vehicle: saline with Tween-80 86 % of control | dose: 400.0 mg/kg/injection, schedule: Q04DX003 (ip), vehicle: saline with Tween-80 90 % of control

CCN1C(=O)NC(=O)C(CC)(N2CCCCC2)C1=O (stereo not drawn)
inactive: [1] 111 % of control | [2] 98 % of control | [3] 104 % of control

Nc1c(Cl)cc(C(=O)NC2CC2)cc1Cl
inactive: dose: 25.0 mg/kg/injection, schedule: Q01DX009 (ip), vehicle: saline with Tween-80 94 % of control and 95 % of control | [12] 100 % of control and 88 % of control | [10] 102 % of control and 113 % of control | [11] 109 % of control and 89 % of control

CC(=O)OCc1c(C)[nH]c2ccc(N(C)C)cc2c1=O
inactive: [4] 88 % of control | [5] 103 % of control | [6] 111 % of control

C/C(NCCc1ccccc1)=C1\CCOC1=O
inactive: dose: 50.0 mg/kg/injection, schedule: Q01DX001 (ip), vehicle: Klucel (hydroxypropylcellulose) (HPC) 101 % of control | dose: 100.0 mg/kg/injection, schedule: Q01DX001 (ip), vehicle: Klucel (hydroxypropylcellulose) (HPC) 96 % of control | dose: 200.0 mg/kg/injection, schedule: Q01DX001 (ip), vehicle: Klucel (hydroxypropylcellulose) (HPC) 104 % of control

CC1=C(C)C(=O)OC(C(C)(O)C2(O)CCC3(O)C4CC(O)C56OC5C=CC(=O)C6(C)C4CCC32C)C1 (stereo not drawn)
inactive: dose: 0.75 mg/kg/injection, schedule: Q01DX005 (ip), vehicle: Klucel (hydroxypropylcellulose) (HPC) 100 % of control | dose: 1.5 mg/kg/injection, schedule: Q01DX005 (ip), vehicle: Klucel (hydroxypropylcellulose) (HPC) 102 % of control | dose: 3.0 mg/kg/injection, schedule: Q01DX005 (ip), vehicle: Klucel (hydroxypropylcellulose) (HPC) 108 % of control | dose: 6.0 mg/kg/injection, schedule: Q01DX005 (ip), vehicle: Klucel (hydroxypropylcellulose) (HPC) 111 % of control

CC1c2ccoc2CC2C1C(O)C(O)C1C(C)(C)CCCC21C (stereo not drawn)
inactive: dose: 100.0 mg/kg/injection, schedule: Q04DX002 (ip), vehicle: suspension in saline 106 % of control | dose: 200.0 mg/kg/injection, schedule: Q04DX002 (ip), vehicle: suspension in saline 106 % of control | dose: 400.0 mg/kg/injection, schedule: Q04DX002 (ip), vehicle: suspension in saline 98 % of control

Nc1ccc(N)c2c1C(=O)c1ccccc1C2=O
inactive: [13] 110 % of control | [14] 105 % of control | [15] 105 % of control | [16] 103 % of control | [17] 105 % of control

C/C(=N\NC(=S)Nc1nccs1)c1ccc2ccccc2n1
inactive: [13] 102 % of control | [15] 100 % of control | [17] 113 % of control

Cc1c(/C=C/C(=O)O)no[n+]1[O-]
inactive: [13] 102 % of control | [15] 98 % of control | [17] 100 % of control

COc1ccc2c(c1)CC(CN1CCC3(CC1)C(=O)NCN3c1ccccc1)O2 (stereo not drawn)
inactive: [12] 104 % of control | [10] 101 % of control | [11] 100 % of control

CCCCCCCCCC(=O)CCCCC
inactive: dose: 100.0 mg/kg/injection, schedule: Q01DX009 (ip), vehicle: other 115 % of control | dose: 200.0 mg/kg/injection, schedule: Q01DX009 (ip), vehicle: other 115 % of control | dose: 400.0 mg/kg/injection, schedule: Q01DX009 (ip), vehicle: other 90 % of control

Cc1ncc(CCl)n1Cc1ccccc1
inactive: dose: 15.0 mg/kg/injection, schedule: Q01DX005 (ip), vehicle: saline 105 % of control | dose: 30.0 mg/kg/injection, schedule: Q01DX005 (ip), vehicle: saline 106 % of control | dose: 60.0 mg/kg/injection, schedule: Q01DX005 (ip), vehicle: saline 99 % of control

O=C1OC(c2ccc(F)cc2)CC1CN1CCOCC1 (stereo not drawn)
inactive: [4] 105 % of control | [5] 105 % of control | [6] 99 % of control

COc1ccccc1C1OC2=C(Nc3ccc([N+](=O)[O-])cc3N2)C1=O (stereo not drawn)
inactive: dose: 30.0 mg/kg/injection, schedule: Q01DX005 (ip), vehicle: Klucel (hydroxypropylcellulose) (HPC) 93 % of control | dose: 60.0 mg/kg/injection, schedule: Q01DX005 (ip), vehicle: Klucel (hydroxypropylcellulose) (HPC) 92 % of control | dose: 120.0 mg/kg/injection, schedule: Q01DX005 (ip), vehicle: Klucel (hydroxypropylcellulose) (HPC) 92 % of control and 96 % of control

N#CC(=O)Nc1ccc(Cl)cc1
inactive: dose: 3.75 mg/kg/injection, schedule: Q01DX005 (ip), vehicle: saline with Tween-80 103 % of control | dose: 7.5 mg/kg/injection, schedule: Q01DX005 (ip), vehicle: saline with Tween-80 111 % of control | dose: 15.0 mg/kg/injection, schedule: Q01DX005 (ip), vehicle: saline with Tween-80 109 % of control

Cc1c2oc3c(C)ccc(C(=O)NCCN4CCCCC4)c3nc-2c(C(=O)NCCN2CCCCC2)c(N)c1=O
inactive: dose: 12.5 mg/kg/injection, schedule: Q01DX009 (ip), vehicle: Klucel (hydroxypropylcellulose) (HPC) 98 % of control | dose: 25.0 mg/kg/injection, schedule: Q01DX009 (ip), vehicle: Klucel (hydroxypropylcellulose) (HPC) 117 % of control | [14] 115 % of control | [16] 110 % of control

COc1cccc2c1C(=O)c1c(O)c3c(c(O)c1C2=O)CC(O)(C(C)=O)CC3OC1CC(NC(=O)C(F)(F)F)C(OC(=O)c2ccc([N+](=O)[O-])cc2)C(C)O1 (stereo not drawn)
inactive: dose: 3.13 mg/kg/injection, schedule: Q04DX003 (ip), vehicle: distilled water + Tween-80 102 % of control and 98 % of control | dose: 6.25 mg/kg/injection, schedule: Q04DX003 (ip), vehicle: distilled water + Tween-80 101 % of control and 100 % of control | dose: 12.5 mg/kg/injection, schedule: Q04DX003 (ip), vehicle: distilled water + Tween-80 99 % of control and 97 % of control | dose: 25.0 mg/kg/injection, schedule: Q04DX003 (ip), vehicle: distilled water + Tween-80 111 % of control and 108 % of control | dose: 50.0 mg/kg/injection, schedule: Q04DX003 (ip), vehicle: distilled water + Tween-80 95 % of control and 100 % of control

CNC(=O)OCCC(OC(=O)NC)C1CCC2C3CCC4CCCCC4(C)C3CCC12C (stereo not drawn)
inactive: [7] 113 % of control | [8] 103 % of control | [9] 110 % of control

Cn1ncc2c(=O)[nH]c(-c3ccccc3)nc21
inactive: [4] 105 % of control | [5] 96 % of control | [6] 105 % of control

Nc1nccc(C(=O)c2ccccc2O)n1
inactive: dose: 50.0 mg/kg/injection, schedule: Q01DX009 (ip), vehicle: saline 98 % of control | dose: 100.0 mg/kg/injection, schedule: Q01DX009 (ip), vehicle: saline 95 % of control | dose: 200.0 mg/kg/injection, schedule: Q01DX009 (ip), vehicle: saline 99 % of control
